Laboratory results published in publication PMC9775652, “Concomitant Administration of Red Ginseng Extract with Lactic Acid Bacteria Increases the Plasma Concentration of Deglycosylated Ginsenosides in Healthy Human Subjects” (Biomolecules, 2022).
Like-named read-outs stand apart in the source and are kept apart here.

How the values were obtained:
[1] = test system: LAB; experiment: In vitro RGE fermentation with LAB; format: in vitro ADME
Procedure: To identify the effects of LAB on ginsenoside metabolism, an in vitro fermentation study was performed according to the method of Jeon et al., with slight modifications. Briefly, RGE (10 mL, 1 pouch) and 2 g LAB (containing 1 billion CFU) were suspended in 10 mL autoclaved MRS broth (550 mg broth powder dissolved in 10 mL water). For the 15 ginsenosides, individual ginsenosides (10 μM each) and 2 g of LAB were suspended in 20 mL of autoclaved MRS broth (550 mg broth powder dissolved in 20 mL water). The mixture was incubated for 7 days in a shaking incubator at 37 °C and 300 rpm, and a 0.1 mL aliquot of the incubation mixture was collected on days 0, 3, 5, and 7. The incubation medium was diluted 100-fold with distilled water and stored at −80 °C to analyze ginsenosides using the LC-MS/MS system.
To measure the metabolic activity of ginsenosides, the formation rate of ginsenosides (pmol/day) was calculated by dividing the slope of the regression line by the amount of deglycosylated ginsenosides versus the incubation time plot by the initial concentration of individual ginsenosides.

[2] = Transport (permeability) of ginsenosides in CaCo-2 cell monolayers; format: in vitro ADME; settings: human
Procedure: (§1) CaCo-2 cells (passage no 41–43) were seeded onto collagen-coated permeable support (1.0 μm pore size) in a 24-well plate at a density of 2.5 × 10^4 cells/insert and cultured for 21 days in Dulbecco’s modified eagle’s medium supplemented with 10% fetal bovine serum, 1% non-essential amino acids, and 1% penicillin-streptomycin at 37 °C in a humidified atmosphere (5% CO2/95% air). After confirming that the transepithelial electrical resistance (TEER) of the CaCo-2 cell monolayer was over 400 Ω·cm^2, Apical to basal (A to B) transport and B to A transport of ginsenosides using 50 µM, GRb1 was investigated as previously described. The same permeability study was performed using 50 µM GRb2, GRc, GRd, GRg3, GRh2, GF2, CK, PPD, GRe, GRf, GRg1, GRh1, GF1, or PPT.
(§2) For the transport study of ginsenosides in CaCo-2 cells and LLC-PK1-P-gp cells, the ginsenoside transport rate in the A to B or B to A directions was calculated from the slope of the regression line from the mean transported amounts versus time plot. The apparent permeability (Papp) was calculated using Equation (1). (1) Papp (×10^−6 cm/s)=transport rate (nmol/min)/concentration(μM)×area(cm^2)×60s
(§3) The efflux ratio was calculated by dividing the Papp of ginsenosides from the B to A direction by that from the A to B direction.

[3] = Pharmacokinetic study of ginsenosides in healthy humans after repeated oral RGE with or without LAB; format: in vivo, human
Procedure: A single-sequence study consisting of two periods was conducted on five healthy male subjects (body weight > 50 kg and age > 19 years) for 29 days. During the first period of the study (RGE treatment group), three pouches of RGE (30 mL, 104.1 mg of total ginsenosides) were administered to 5 subjects once daily for 14 days. On the 14th day, the subjects were admitted to the Clinical Trial Center of KNUH at 7 AM and underwent the last RGE administration at approximately 8–9 AM. Blood samples (approximately 3 mL) were collected at 0, 4, 6, 8, 10, 12, 13, 14, and 24 h after the last dose. A saline-locked angiocatheter was placed on the forearm of each subject’s hand. After discarding 1 mL of blood derived from the catheter, 3 mL of blood was drawn into a vacutainer tube containing heparin and centrifuged at 3000× g for 10 min. The supernatant plasma samples were stored at −80 °C until ginsenoside analysis.
In the second half of the study (RGE + LAB treatment group), 3 pouches of RGE (30 mL, 104.1 mg of total ginsenosides) and 1 pouch of LAB (1 billion CFU/2 g) were co-administered once daily for 14 days. On the […], the subjects were admitted to the Clinical Trial Center of KNUH at 7 AM and received the last red ginseng dose at approximately 8–9 AM. Blood samples (approximately 3 mL) were withdrawn at 0, 4, 6, 8, 10, 12, 13, 14, and 24 h intervals after the last dose and centrifuged at 3000× g for 10 min; the supernatant plasma samples were stored at −80 °C.
Briefly, to analyze GRb1, GRb2, GRc, GRd, GRe, GRf, GRg1, GRg3, GF1, and GF2, 400 μL of an internal standard (IS; 0.05 ng/mL berberine in methanol) was added to 100 μL of plasma. The mixture was vortexed for 15 min and centrifuged at 16,000× g for 5 min. After centrifugation, 400 μL of the supernatant was evaporated using a speed-dry vacuum concentrator (Christ, Osterode am Harz, Germany). The residue was reconstituted using 200 μL of 70% methanol supplemented with 0.1% formic acid, and a 10 μL aliquot was injected into the LC-MS/MS system. Chromatographic separation was performed using a Polar RP column (150 × 2.0 mm, 4.0 μm particle size; Phenomenex, Torrance, CA, USA) using a mobile phase consisting of 0.1% formic acid in water (phase A) and 0.1% formic acid in methanol (phase B). The following elution gradient was used: 69% of phase B for 0–2.0 min, 69–85% of phase B for 2.0–4.0 min, and 85–69% of phase B for 6.0–6.5 min. The flow rate was 0.27 mL/min.
The mixture was vortexed for 10 min and centrifuged at 16,000× g for 5 min. After centrifugation, the samples were frozen at −80 °C for 4 h. The upper layer was transferred to a clean tube and evaporated. The residue was reconstituted using 200 μL of 80% methanol supplemented with 0.1% formic acid, and a 10 μL aliquot was injected into the LC-MS/MS system. Chromatographic separation was performed using a Luna C18 column (150 × 2.0 mm, 3.0 μm particle size; Phenomenex, Torrance, CA, USA) and using a mobile phase consisting of water containing 0.1% formic acid: methanol containing 0.1% formic acid = 8:92 (v/v) at a flow rate of 0.15 mL/min.
The quantification of ginsenosides was carried out using multiple reaction monitoring in positive ionization mode, as previously described.
Finally, pharmacokinetic parameters were calculated using non-compartmental methods (WinNonlin version 5.1; Pharsight Co., Certara, NJ, USA). Statistical analysis was performed by Student’s t-test to compare the two groups using IBM SPSS Statistics for Windows (version 25.0; IBM Corp., Armonk, NY, USA). Differences were considered significant at p < 0.05.

[4] = test system: CaCo-2 cells; experiment: Transport (permeability) of ginsenosides in CaCo-2 cell monolayers; format: in vitro ADME; settings: Caco-2
Procedure: as §1, §2, §3

[5] = biological target: T1, P-gp (Homo sapiens, UniProt P08183); experiment: Transport of ginsenosides in P-gp-overexpressing LLC-PK1-P-gp cells; format: in vitro ADME
T1 construct: host or cells: LLC-PK1-P-gp cells (passage no. 25–28)
Procedure: LLC-PK1-P-gp cells (passage no. 25–28) were seeded onto collagen-coated permeable support (1.0 μm pore size) in 24-well plates at a density of 2.5 × 10^4 cells/insert and grown for 5 days with TEER values of over 500 Ω·cm^2 [24]. The A to B transport and B to A transport of GRg3, GRh2, CK, PPD, GRg1, GRh1, and PPT (20 μM each) were measured as previously described. The concentration dependency in the B to A transport of GRh2, CK, PPD, and PPT was measured in the range of 6.25–200 μM for GRh2, CK, PPD, and PPT.
as §2, §3
To measure the kinetic parameters of the concentration dependence on the P-gp-mediated ginsenoside efflux, the ginsenoside transport rate in the B to A direction (ν) versus the ginsenoside concentration (S) plot was fitted in the Michaelis–Menten Equation (2) using Sigma Plot (version 12.0, Systat Software Inc. Chicago, IL, USA). (2) ν=Vmax×S/Km+S

[6] = in rats; cited from earlier work
[7] = RGE incubated with LAB (1 billion CFU) for 7 days at 37 °C, result in words
[8] = CaCo-2 cell monolayers, 50 µM ginsenoside, read-out: A to B Papp

T1 sequence (P08183 whole entry): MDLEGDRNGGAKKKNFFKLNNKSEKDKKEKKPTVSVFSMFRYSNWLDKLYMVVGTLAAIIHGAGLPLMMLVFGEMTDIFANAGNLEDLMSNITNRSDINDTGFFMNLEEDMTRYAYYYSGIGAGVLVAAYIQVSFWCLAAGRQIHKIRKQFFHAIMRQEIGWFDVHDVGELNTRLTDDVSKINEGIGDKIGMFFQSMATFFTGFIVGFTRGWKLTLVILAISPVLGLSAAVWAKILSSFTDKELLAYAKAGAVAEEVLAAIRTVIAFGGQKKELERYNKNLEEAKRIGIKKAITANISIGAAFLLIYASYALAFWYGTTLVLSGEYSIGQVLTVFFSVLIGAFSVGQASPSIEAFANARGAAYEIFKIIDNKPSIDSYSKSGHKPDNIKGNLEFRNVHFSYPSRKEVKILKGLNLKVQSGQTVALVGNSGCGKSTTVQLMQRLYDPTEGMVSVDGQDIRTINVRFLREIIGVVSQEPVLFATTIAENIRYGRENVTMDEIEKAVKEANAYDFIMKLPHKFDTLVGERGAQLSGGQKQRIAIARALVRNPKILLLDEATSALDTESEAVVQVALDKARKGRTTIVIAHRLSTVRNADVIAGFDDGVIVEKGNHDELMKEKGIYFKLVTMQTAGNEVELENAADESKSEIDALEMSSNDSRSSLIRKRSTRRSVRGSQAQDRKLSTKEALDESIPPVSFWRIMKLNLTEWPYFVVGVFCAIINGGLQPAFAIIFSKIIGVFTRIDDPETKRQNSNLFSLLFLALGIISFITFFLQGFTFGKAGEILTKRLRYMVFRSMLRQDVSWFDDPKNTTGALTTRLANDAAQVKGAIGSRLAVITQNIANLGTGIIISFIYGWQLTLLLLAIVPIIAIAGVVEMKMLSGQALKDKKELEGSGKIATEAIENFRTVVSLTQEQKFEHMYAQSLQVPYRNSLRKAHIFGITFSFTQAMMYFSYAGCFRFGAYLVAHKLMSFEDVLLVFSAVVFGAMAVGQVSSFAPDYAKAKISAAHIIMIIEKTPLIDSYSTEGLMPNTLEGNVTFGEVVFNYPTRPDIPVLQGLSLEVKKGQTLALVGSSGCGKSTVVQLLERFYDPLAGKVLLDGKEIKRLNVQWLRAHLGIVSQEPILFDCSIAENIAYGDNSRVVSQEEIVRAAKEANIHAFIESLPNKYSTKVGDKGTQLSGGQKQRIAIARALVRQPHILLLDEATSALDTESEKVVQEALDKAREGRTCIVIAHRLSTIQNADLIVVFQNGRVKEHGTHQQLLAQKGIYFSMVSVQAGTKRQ

Compound	Cmax ([3]; human, in vivo, po) [ng/mL]	MRT ([3]; human, in vivo, po) [h]	Tmax ([3]; human, in vivo, po) [h]	AUC ([3]; human, in vivo, po, 104.1 mg) [ng·h/mL]	Relative abundance / metabolic activity following fermentation of RGE with LAB [1]	A to B Papp [4]	Relative abundance / metabolic activity following fermentation of RGE with LAB [1, 7]	Papp A→B at 50 µM [2, 8] [×10⁻⁶ cm/s]	further results
CC(C)=CCCC(C)(OC1OC(CO)C(O)C(O)C1O)C1CCC2(C)C1C(O)CC1C3(C)CCC(O)C(C)(C)C3C(O)CC12C (centres unmarked) [GF1]	–	–	–	–	–	–	remained unchanged	–	Papp A→B at 50 µM ([2]; Caco-2): < 0.3 ×10⁻⁶ cm/s
CC(C)=CCCC(C)(O)C1CCC2(C)C1C(O)CC1C3(C)CCC(O)C(C)(C)C3C(OC3OC(CO)C(O)C(O)C3O)CC12C (centres unmarked) [GRh1]	–	–	–	–	–	–	significantly increased	< 0.3	efflux ratio at 20 μM ([5]; pig, LLC-PK1, LLC-PK1-P-gp cells, 20 μM, B to A Papp divided by A to B Papp, read-out: ER): 0.9; Papp A→B at 20 μM ([5]; pig, LLC-PK1-P-gp cells, 20 μM, mean ± SD, n = 3, read-out: A to B permeability): 0.21 ± 0.09 ×10⁻⁶ cm/s; Papp B→A at 20 μM ([5]; pig, LLC-PK1-P-gp cells, 20 μM, mean ± SD, n = 3, read-out: B to A permeability): 0.18 ± 0.01 ×10⁻⁶ cm/s
CC(C)=CCC[C@](C)(O[C@@H]1O[C@H](CO[C@@H]2O[C@H](CO)[C@@H](O)[C@H](O)[C@H]2O)[C@@H](O)[C@H](O)[C@H]1O)[C@H]1CC[C@]2(C)[C@@H]1[C@H](O)C[C@@H]1[C@@]3(C)CC[C@H](O[C@@H]4O[C@H](CO)[C@@H](O)[C@H](O)[C@H]4O[C@@H]4O[C@H](CO)[C@@H](O)[C@H](O)[C@H]4O)C(C)(C)[C@@H]3CC[C@]12C [GRb1, ginsenoside Rb1]	–	–	–	–	–	–	marked decrease	< 0.3	Change of AUC / pharmacokinetic parameters by RGE and LAB co-administration ([3]; RGE + LAB group versus RGE group, humans, result in words): not different; Cmax ([3]; male, human, plasma, po, 104.1 mg total ginsenosides/day, RGE group, human plasma, RGE oral 14 days, mean ± SD, n = 5, read-out: Cmax): 7.1 ± 3.2 ng/mL; MRT ([3]; male, human, plasma, po, 104.1 mg total ginsenosides/day, RGE group, human plasma, RGE oral 14 days, mean ± SD, n = 5, read-out: MRT): 18.3 ± 1.1 h; Tmax ([3]; male, human, plasma, po, 104.1 mg total ginsenosides/day, RGE group, human plasma, RGE oral 14 days, mean ± SD, n = 5, read-out: Tmax): 5.3 ± 4.6 h; Cmax ([3]; male, human, plasma, po, RGE + LAB group, human plasma, oral 14 days, mean ± SD, n = 5, read-out: Cmax): 6.2 ± 2.9 ng/mL; MRT ([3]; male, human, plasma, po, RGE + LAB group, human plasma, oral 14 days, mean ± SD, n = 5, read-out: MRT): 16.9 ± 0.5 h; Tmax ([3]; male, human, plasma, po, RGE + LAB group, human plasma, oral 14 days, mean ± SD, n = 5, read-out: Tmax): 6.8 ± 1.1 h; AUC ([3]; male, RGE + LAB group, human plasma, RGE plus LAB (1 billion CFU/2 g) once daily oral 14 days, AUC 0 to 24 h, mean ± SD, n = 5, read-out: AUC): 164 ± 77.3 ng·h/mL; AUC ([3]; male, RGE group, human plasma, RGE once daily oral 14 days (104.1 mg total ginsenosides/day), AUC 0 to 24 h, mean ± SD, n = 5, read-out: AUC): 185 ± 80.6 ng·h/mL; Oral bioavailability (BA) [6]: less than 5%

Second part, led by results:

Cmax ([3]; human, in vivo, po) [ng/mL]	MRT ([3]; human, in vivo, po) [h]	Tmax ([3]; human, in vivo, po) [h]	AUC ([3]; human, in vivo, po, 104.1 mg) [ng·h/mL]	Relative abundance / metabolic activity following fermentation of RGE with LAB [1]	A to B Papp [4]	Compound	Relative abundance / metabolic activity following fermentation of RGE with LAB [1, 7]	Papp A→B at 50 µM [2, 8] [×10⁻⁶ cm/s]	further results
7.2 ± 4.8	7.6 ± 2.8	7.2 ± 3.0	94.1 ± 50.0	remained unchanged	below 0.3 × 10^−6 cm/s	CC(C)=CCC[C@](C)(O)[C@H]1CC[C@]2(C)[C@@H]1[C@H](O)C[C@@H]1[C@@]3(C)CC[C@H](O[C@@H]4O[C@H](CO)[C@@H](O)[C@H](O)[C@H]4O[C@@H]4O[C@H](CO)[C@@H](O)[C@H](O)[C@H]4O)C(C)(C)[C@@H]3CC[C@]12C [GRg3]	–	–	A to B permeability ([5]; LLC-PK1): 0.07±0.01 × 10^−6 cm/s; B to A permeability ([5]; LLC-PK1): 0.07±0.01 × 10^−6 cm/s
–	–	–	–	marked decrease	below 0.3 × 10^−6 cm/s	CC(C)=CCC[C@](C)(O[C@@H]1O[C@H](CO)[C@@H](O)[C@H](O)[C@H]1O)[C@H]1CC[C@]2(C)[C@@H]1[C@H](O)C[C@@H]1[C@@]3(C)CC[C@H](O)C(C)(C)[C@@H]3[C@@H](O[C@@H]3O[C@H](CO)[C@@H](O)[C@H](O)[C@H]3O[C@@H]3O[C@@H](C)[C@H](O)[C@@H](O)[C@H]3O)C[C@]12C [GRe]	–	–	–
5.1 ± 2.4	18.0 ± 1.2	6.2 ± 4.0	118.4 ± 58.2	marked decrease	below 0.3 × 10^−6 cm/s	CC(C)=CCC[C@](C)(O[C@@H]1O[C@H](CO[C@@H]2O[C@@H](CO)[C@H](O)[C@H]2O)[C@@H](O)[C@H](O)[C@H]1O)[C@H]1CC[C@]2(C)[C@@H]1[C@H](O)C[C@@H]1[C@@]3(C)CC[C@H](O[C@@H]4O[C@H](CO)[C@@H](O)[C@H](O)[C@H]4O[C@@H]4O[C@H](CO)[C@@H](O)[C@H](O)[C@H]4O)C(C)(C)[C@@H]3CC[C@]12C [GRc]	–	–	–
